Data: patent US20250129070A1, “BIFUNCTIONAL ANDROGEN RECEPTOR COMPOUNDS” (priority 2023, published 2025)

Legend:
VCaP cells = test: VCaP growth inhibition assay; type: cell-based; details: 30 pM R1881, 9 days, CTG
Summary of the method: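 Growth read by CTG luminescence after 9-day exposure to compound (final 100 nM–10 fM, 1:5 steps) plus 30 pM R1881, in phenol red-free DMEM with 5% CSS. Cells pre-incubated 72 h before dosing; IC50 by nonlinear 4-parameter regression.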

AR / CBP ternary complex = test: Ternary complex formation assay (sandwich ELISA, AR capture / CBP detection) in VCaP cell lysates; type: cell-based; details: 1.5 hours treatment, sandwich ELISA (AR capture, CBP or p300 detection)
Summary of the method: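 Anti-AR (AR 441)-coated plates capture AR from lysates of VCaP cells grown ≥3 days at 50K/well in 5% charcoal-stripped FBS, dosed with bifunctional for 1.5 h and lysed 30 min at 4 °C. Co-captured CBP/p300 is probed with rabbit mAb and HRP anti-rabbit, then QuantaRed fluorescence (570/585) is read at 0, 5 and 15 min.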

Row | Structure (SMILES) | IC50 (VCaP cells) [nM] | EC50 (AR / CBP ternary complex) [nM]
1 | COc1cc(OC2C(C)(C)C(NC(=O)c3ccc(N4CCC[C@H](N5CCC(n6nc(N7CCCc8cc(-c9cnn(C)c9)c(C(F)F)cc87)c7c6CCN(C(C)=O)C7)CC5)C4)cc3)C2(C)C)ccc1C#N (stereo partly drawn) [Compound 399, 4-[(3S)-3-[4-[5-acetyl-3-[7-(difluoromethyl)-6-(1-methylpyrazol-4-yl)-3,4-dihydro-2H-quinolin-1-yl]-6,7-dihydro-4H-pyrazolo[4,3-c]pyridin-1-yl]-1-piperidyl]-1-piperidyl]-N-[3-(4-cyano-3-methoxy-phenoxy)-2,2,4,4-tetramethyl-cyclobutyl]benzamide] | 1 to 100 | 1 to 10
2 | CC(=O)N1CCc2c(c(N3CCCc4cc(-c5cnn(C)c5)c(C(F)F)cc43)nn2C2CCN([C@H]3CCCN(c4ncc(C(=O)NC5C(C)(C)C(Oc6ccc(C#N)c(Cl)c6)C5(C)C)cn4)C3)CC2)C1 (stereo partly drawn) [Compound 397, 2-[(3S)-3-[4-[5-acetyl-3-[7-(difluoromethyl)-6-(1-methylpyrazol-4-yl)-3,4-dihydro-2H-quinolin-1-yl]-6,7-dihydro-4H-pyrazolo[4,3-c]pyridin-1-yl]-1-piperidyl]-1-piperidyl]-N-[3-(3-chloro-4-cyano-phenoxy)-2,2,4,4-tetramethyl-cyclobutyl]pyrimidine-5-carboxamide] | > 100 | 1 to 10
3 | CC(=O)N1CCc2c(c(N3CCCc4ccccc43)nn2C2CCN(C(=O)C3CCN(c4ncc(C(=O)NC5C(C)(C)C(Oc6ccc(C#N)c(Cl)c6)C5(C)C)cn4)CC3)CC2)C1 (stereo not shown) [Compound 129, 2-[4-[4-[5-acetyl-3-(3,4-dihydro-2H-quinolin-1-yl)-6,7-dihydro-4H-pyrazolo[4,3-c]pyridin-1-yl]piperidine-1-carbonyl]-1-piperidyl]-N-[3-(3-chloro-4-cyano-phenoxy)-2,2,4,4-tetramethyl-cyclobutyl]pyrimidine-5-carboxamide] | ≤ 0.1 | < 1
4 | CC(=O)N1CCc2c(c(N3CCCc4cc(-c5cnn(C)c5)c(C(F)F)cc43)nn2C2CCN(C3CC(Oc4ncc(C(=O)NC5C(C)(C)C(Oc6ccc(C#N)c(Cl)c6)C5(C)C)cn4)C3)CC2)C1 (stereo not shown) [Compound 376, 2-[3-[4-[5-acetyl-3-[7-(difluoromethyl)-6-(1-methylpyrazol-4-yl)-3,4-dihydro-2H-quinolin-1-yl]-6,7-dihydro-4H-pyrazolo[4,3-c]pyridin-1-yl]-1-piperidyl]cyclobutoxy]-N-[3-(3-chloro-4-cyano-phenoxy)-2,2,4,4-tetramethyl-cyclobutyl]pyrimidine-5-carboxamide] | 0.1 to 1 | < 1
5 | COc1cc(OC2C(C)(C)C(NC(=O)c3ccc(N4CC5(CCC(C6CCC(n7nc(N8CCCc9cc(-c%10cnn(C)c%10)c(C(F)F)cc98)c8c7CCN(C(C)=O)C8)CC6)CC5)C4)cc3)C2(C)C)ccc1C#N (stereo not shown) [Compound 378, 4-[7-[4-[5-acetyl-3-[7-(difluoromethyl)-6-(1-methylpyrazol-4-yl)-3,4-dihydro-2H-quinolin-1-yl]-6,7-dihydro-4H-pyrazolo[4,3-c]pyridin-1-yl]cyclohexyl]-2-azaspiro[3.5]nonan-2-yl]-N-[3-(4-cyano-3-methoxy-phenoxy)-2,2,4,4-tetramethyl-cyclobutyl]benzamide] | 1 to 100 | 1 to 10
6 | COc1cc(OC2C(C)(C)C(NC(=O)c3ccc(N4CC(C)C(CN5CCC(n6nc(N7CCCc8cc(C#N)c(C(F)F)cc87)c7c6CCN(C(C)=O)C7)CC5)C(C)C4)cc3)C2(C)C)ccc1C#N (stereo not shown) [Compound 459, 4-[4-[[4-[5-acetyl-3-[6-cyano-7-(difluoromethyl)-3,4-dihydro-2H-quinolin-1-yl]-6,7-dihydro-4H-pyrazolo[4,3-c]pyridin-1-yl]-1-piperidyl]methyl]-3,5-dimethyl-1-piperidyl]-N-[3-(4-cyano-3-methoxy-phenoxy)-2,2,4,4-tetramethyl-cyclobutyl]benzamide] | 0.1 to 1 | < 1

Second part, the molecule after the results:

Row | IC50 (VCaP cells) [nM] | EC50 (AR / CBP ternary complex) [nM] | Structure (SMILES)
7 | ≤ 0.1 | < 1 | CC(=O)N1CCc2c(c(N3CCCc4cc(-c5cnn(C)c5)c(C(F)F)cc43)nn2C2CCN(C(C)COC3CCN(c4ncc(C(=O)NC5C(C)(C)C(Oc6ccc(C#N)c(Cl)c6)C5(C)C)cn4)CC3)CC2)C1 (stereo not shown) [Compound 169, 2-[4-[2-[4-[5-acetyl-3-[7-(difluoromethyl)-6-(1-methylpyrazol-4-yl)-3,4-dihydro-2H-quinolin-1-yl]-6,7-dihydro-4H-pyrazolo[4,3-c]pyridin-1-yl]-1-piperidyl]propoxy]-1-piperidyl]-N-[3-(3-chloro-4-cyano-phenoxy)-2,2,4,4-tetramethyl-cyclobutyl]pyrimidine-5-carboxamide]
8 | 0.1 to 1 | < 1 | CC(=O)N1CCc2c(c(N3CCCc4cc(-c5cnn(C)c5)c(C)cc43)nn2C2CCN(CC3CCN(c4ncc(C(=O)NC5C(C)(C)C(Oc6ccc(C#N)c(C)c6C)C5(C)C)cn4)CC3(C)C)CC2)C1 (stereo not shown) [Compound 465, 2-[4-[[4-[5-acetyl-3-[7-methyl-6-(1-methylpyrazol-4-yl)-3,4-dihydro-2H-quinolin-1-yl]-6,7-dihydro-4H-pyrazolo[4,3-c]pyridin-1-yl]-1-piperidyl]methyl]-3,3-dimethyl-1-piperidyl]-N-[3-(4-cyano-2,3-dimethyl-phenoxy)-2,2,4,4-tetramethyl-cyclobutyl]pyrimidine-5-carboxamide]
9 | 0.1 to 1 | < 1 | CC(=O)N1CCc2c(c(N3CCCc4cc(-c5cnn(C)c5)c(C(F)F)cc43)nn2C2CCN(C3CC4(CC(Oc5ncc(C(=O)NC6C(C)(C)C(Oc7ccc(C#N)c(Cl)c7)C6(C)C)cn5)C4)C3)CC2)C1 (stereo not shown) [Compound 385, 2-[6-[4-[5-acetyl-3-[7-(difluoromethyl)-6-(1-methylpyrazol-4-yl)-3,4-dihydro-2H-quinolin-1-yl]-6,7-dihydro-4H-pyrazolo[4,3-c]pyridin-1-yl]-1-piperidyl]spiro[3.3]heptan-2-yl]oxy-N-[3-(3-chloro-4-cyano-phenoxy)-2,2,4,4-tetramethyl-cyclobutyl]pyrimidine-5-carboxamide]
10 | 0.1 to 1 | < 1 | CC(=O)N1CCc2c(c(N3CCCc4cc(-c5cnn(C)c5)c(C(F)F)cc43)nn2C2CCN([C@@H]3CCN(c4ncc(C(=O)NC5C(C)(C)C(Oc6ccc(C#N)c(Cl)c6)C5(C)C)cn4)C3)CC2)C1 (stereo partly drawn) [Compound 335, 2-[(3R)-3-[4-[5-acetyl-3-[7-(difluoromethyl)-6-(1-methylpyrazol-4-yl)-3,4-dihydro-2H-quinolin-1-yl]-6,7-dihydro-4H-pyrazolo[4,3-c]pyridin-1-yl]-1-piperidyl]pyrrolidin-1-yl]-N-[3-(3-chloro-4-cyano-phenoxy)-2,2,4,4-tetramethyl-cyclobutyl]pyrimidine-5-carboxamide]
11 | 0.1 to 1 | < 1 | COc1cc(OC2C(C)(C)C(NC(=O)c3ccc(N4CC5(CCC(N6CCC(n7nc(-c8cccc9cc(-c%10cnn(C)c%10)ncc89)c8c7CCN(C(C)=O)C8)CC6)CC5)C4)cc3)C2(C)C)ccc1C#N (stereo not shown) [Compound 448, 4-[7-[4-[5-acetyl-3-[3-(1-methylpyrazol-4-yl)-8-isoquinolyl]-6,7-dihydro-4H-pyrazolo[4,3-c]pyridin-1-yl]-1-piperidyl]-2-azaspiro [3.5]nonan-2-yl]-N-[3-(4-cyano-3-methoxy-phenoxy)-2,2,4,4-tetramethyl-cyclobutyl]benzamide]
